Measured values taken from patent US20240246935A1 (Plexium, Inc., priority 2021, published 2024).
pEC50: −log10 of the molar value.

Columns and labels:
[1] = system: IKZF2 (Helios); assay: IKZF2 reporter degradation assay (HEK 293T IKZF2-mNeonGreen reporter cell line); assay type: cell-based, human; details: 1 μM compound, 24 hour incubation, HEK 293T IKZF2-mNeonGreen reporter
Source text: Polycistronic plasmids were constructed for the mammalian expression of fluorescent reporter fusions of human transcription factors IKZF1 (Ikaros), IKZF2 (Helios), and IKZF3 (Aiolos). The respective protein sequences had their C-terminal end joined to a GGGGS linker repeated three times followed by mNeonGreen, P2A sequence, and mScarlet. The DNA sequences of the open reading frames are as follows:
IKZF1, IKZF2, and IKZF3 constructs were cloned into the UCOE Hygromycin expression vectors (Millipore Sigma). Reporter constructs were transfected using cationic lipid reagents into adherent HEK 293T cells and stable integrants were selected by treatment with 200 μg/mL hygromycin B. Clonal populations were obtained from the population of stable integrants either by limiting dilution or fluorescence activated cell sorting.
The clonal stable cell lines were maintained under constant 200 μg/mL hygromycin B selection while being passaged for use in the degradation assays. […] The fluorescence intensity of the IKZF1/2/3-mNeonGreen (FITC channel) and mScarlet (PE channel) reporters were routinely analyzed by flow cytometry to confirm consistent expression levels between experiments.
The IKZF1/IKZF2/IKZF3 degradation assays were carried out by harvesting the HEK 293T reporter cell lines and resuspending the cells in media formulated for reduced background fluorescence (FluoroBrite; Thermo Fisher). The respective cell lines were seeded at a density of 4000 cells/well into black-walled 384-well optical grade assay tissue culture plates. The cells were incubated overnight at 37° C. to allow for attachment to the assay plate. Dilutions of the compounds were prepared in DMSO from 10 mM compound stocks. The assay plates were treated with appropriate concentrations of the compounds by dispensing the DMSO dilutions in quadruplicate wells with an upper limit of 0.5% final DMSO.
After 24 hour incubation with the compounds, the assay plates were imaged on an ImageXpress Pico microscopy system (cells maintained at 37° C. during imaging) to obtain the fluorescent readouts. The assay plates were imaged in the FITC and Tetramethylrhodamine (TRITC) channels to obtain the mNeonGreen fluorescence intensity (reporter degradation data) and mScarlet fluorescence intensity (for cell segmentation). 293T-IKZF1 and 293T-IKZF3 reporter cell lines were imaged with exposures of 500 milliseconds (ms) for both FITC and TRITC channels, while the 293T-IKZF2 reporter cell line was imaged with exposures of 1000 ms for FITC and 1250 ms for TRITC. The resulting data was analyzed with Cell Reporter Xpress software using the 2-channel cell scoring analysis with a “percent positive” readout. The TRITC channel was selected for the “nuclei” segmentation with a threshold of 20 while the FITC channel was selected for the “Marker 1” segmentation and a threshold of 100 for the IKZF1 and IKZF3 reporter lines. […] The minimum segmentation width was set to 6 micrometers and the maximum segmentation width was set to 15 micrometers for all cell lines. The DCs calculations were determined by regression to best fit four-parameter logistic curves using GraphPad Prism.

[2] = target: human E3 ligase component cereblon (CRBN) (Homo sapiens (Human), UniProt Q96SW2); assay: Cereblon (CRBN) target engagement, NanoBRET TE Intracellular E3 Ligase Assay in transfected HEK-293T cells; details: read-out: CRBN Binding EC50
Procedure: HEK293T cells were harvested ca. 75% confluent with trypsin and plated (500,000 cells/well) in a 6-well tissue culture plate in 2 mL of Dulbecco's Modified Eagle Medium (DMEM)+10% Fetal Bovine Serum (FBS) and incubated overnight at 37° C.
The NanoLuc-CRBN fusion vector (Nluc-CRBN; Promega) contains the coding region of human E3 ligase component cereblon (CRBN) fused to the C-terminus of the NanoLuc luciferase coding region. A mixture of 10 ng Nluc-CRBN and 990 ng DDB1 Expression Vector (Promega) was added to 125 μL Opti-Minimum Essential Medium (Opti-MEM™; Thermo Fisher) along with 2 μL P3000 reagent (Thermo Fisher) in a 1.5 mL epppendorf tube. This solution was added to Lipofectamine 3000 transfection reagent (5 μL; Thermo Fisher) in Opti-MEM (125 μL), mixed well, and incubated for 15 minutes at room temperature. The transfection mixture was added dropwise to cells and incubated overnight at 37° ° C., 5% CO2. Following transfection, cells were washed once with PBS, and trypsin (250 μL) was added and incubated 30-45 sec to dislodge cells. Complete media (2 mL) was added to resuspend cells to form a single cell suspension. Cells were centrifuged at 320×g for 5 min at room temperature, the supernatant was removed, and the cell pellet resuspended in Opti-MEM (3 mL; wash step repeated×2). After final resuspension in 5 mL Opti-MEM, cells were counted and resuspended at 200,000 cells/mL in Opti-MEM.
Cereblon target engagement was monitored by Bioluminescence Resonance Energy Transfer (BRET) in transfected HEK-293T cells using the NanoBRET TE Intracellular E3 Ligase Assay (Promega). Briefly, 384-well plates (white opaque plates, Corning 3574, low binding surface) were seeded with transfected HEK-293T cells (38 μL/well). 2 μL of 10 μM CRBN tracer (diluted 1:5 in Tracer Dilution Buffer) was added to each well. Plates were centrifuged at 320×g for 1 min at room temperature. Test compounds were added in a 11-point dilution series (typically 10 μM to […]) using a TECAN D300e Digital Dispenser. Plates were shaken for 2 minutes on a microplate shaker to mix compounds. Plates were centrifuged at 320×g for 1 min at room temperature, and subsequently incubated for 2 hours at 37° C.
After incubation, plates were allowed to cool to room temperature for 15 minutes. 20 μL of 3× Complete NanoBRET™ Nano-Glo® Substrate plus Inhibitor Solution (Promega, 1:166 Substrate and 1:500 dilution of Extracellular NanoLuc® Inhibitor diluted in Opti-MEM) were added to each well. Plates were incubated with shaking at room temperature for 3 minutes covered with foil. Plates were read on a CLARIOstar microplate reader (BMG LabTech), measuring at 450 nm (donor emission) and 610 nm (acceptor emission). The IC50 values were determined by regression to best fit four-parameter logistic curves using GraphPad Prism.

Sequence of human E3 ligase component cereblon (CRBN) (Q96SW2 whole entry): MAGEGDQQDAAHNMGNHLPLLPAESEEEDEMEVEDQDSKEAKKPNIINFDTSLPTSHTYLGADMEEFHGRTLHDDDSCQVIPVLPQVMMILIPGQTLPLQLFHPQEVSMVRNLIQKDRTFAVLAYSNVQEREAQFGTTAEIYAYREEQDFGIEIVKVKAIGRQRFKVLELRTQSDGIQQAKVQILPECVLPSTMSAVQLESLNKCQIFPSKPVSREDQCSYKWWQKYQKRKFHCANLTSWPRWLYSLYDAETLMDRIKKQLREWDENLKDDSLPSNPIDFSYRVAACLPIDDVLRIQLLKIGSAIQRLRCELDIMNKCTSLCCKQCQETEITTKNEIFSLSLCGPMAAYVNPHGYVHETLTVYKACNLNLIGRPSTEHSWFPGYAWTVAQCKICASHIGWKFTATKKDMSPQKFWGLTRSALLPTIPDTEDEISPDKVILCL
Sequence of human E3 ligase component cereblon (CRBN) (Q16531 whole entry partner): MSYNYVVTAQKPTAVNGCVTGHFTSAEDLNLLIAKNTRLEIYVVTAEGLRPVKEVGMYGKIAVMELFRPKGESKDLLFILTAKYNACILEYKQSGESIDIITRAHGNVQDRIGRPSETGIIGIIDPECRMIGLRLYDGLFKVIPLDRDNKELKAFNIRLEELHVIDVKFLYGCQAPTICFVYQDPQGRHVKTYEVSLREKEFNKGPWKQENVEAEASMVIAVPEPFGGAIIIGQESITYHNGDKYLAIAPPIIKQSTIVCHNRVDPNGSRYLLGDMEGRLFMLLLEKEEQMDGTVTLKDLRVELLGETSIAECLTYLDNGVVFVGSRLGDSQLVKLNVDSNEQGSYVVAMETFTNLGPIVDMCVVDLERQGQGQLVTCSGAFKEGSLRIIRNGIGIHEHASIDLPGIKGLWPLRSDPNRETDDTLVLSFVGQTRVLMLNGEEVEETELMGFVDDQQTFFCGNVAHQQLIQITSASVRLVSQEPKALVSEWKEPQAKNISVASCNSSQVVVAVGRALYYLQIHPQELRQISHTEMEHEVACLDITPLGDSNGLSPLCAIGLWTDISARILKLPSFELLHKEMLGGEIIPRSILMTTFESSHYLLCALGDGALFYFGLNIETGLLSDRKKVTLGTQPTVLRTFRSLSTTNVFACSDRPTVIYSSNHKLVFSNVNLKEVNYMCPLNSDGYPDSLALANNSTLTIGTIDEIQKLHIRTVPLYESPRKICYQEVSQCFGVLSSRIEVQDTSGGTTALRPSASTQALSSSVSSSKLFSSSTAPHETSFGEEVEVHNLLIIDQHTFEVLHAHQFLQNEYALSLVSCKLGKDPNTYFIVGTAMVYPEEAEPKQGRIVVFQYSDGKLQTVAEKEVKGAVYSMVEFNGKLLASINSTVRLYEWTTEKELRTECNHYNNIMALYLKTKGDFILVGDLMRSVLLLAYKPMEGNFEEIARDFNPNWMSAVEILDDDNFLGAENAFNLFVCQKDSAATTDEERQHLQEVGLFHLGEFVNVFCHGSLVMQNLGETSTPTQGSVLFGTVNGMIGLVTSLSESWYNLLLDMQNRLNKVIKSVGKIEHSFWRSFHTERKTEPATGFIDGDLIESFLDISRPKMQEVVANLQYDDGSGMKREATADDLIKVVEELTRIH

| Compound | IKZF2 % Degradation @ 1 μM [1] [%] | pEC50 [2] |
| --- | --- | --- |
| N#Cc1ccc(C2CN([C@H]3CCCC[C@@H]3Oc3ccc4c(c3)CN(C3CCC(=O)NC3=O)C4=O)C2)c(F)c1 (mixture of isomers) [Compound 116, Rac-4-(1-((trans)-2-((2-(2,6-dioxopiperidin-3-yl)-1-oxoisoindolin-5-yl)oxy)cyclohexyl)azetidin-3-yl)-3-fluorobenzonitrile] | <15 | 7.62 |
| N#Cc1ccc(C2CN([C@H]3CCCC[C@@H]3Oc3ccc4c(c3)CN(C3CCC(=O)NC3=O)C4=O)C2)cc1F (mixture of isomers) [Compound 119, Rac-4-(1-((trans)-2-((2-(2,6-dioxopiperidin-3-yl)-1-oxoisoindolin-5-yl)oxy)cyclohexyl)azetidin-3-yl)-2-fluorobenzonitrile] | 63.8 | 8.10 |
| N#Cc1ccc(C2CN([C@@H]3CCCC[C@@H]3Oc3ccc4c(c3)CN(C3CCC(=O)NC3=O)C4=O)C2)cc1F (mixture of isomers) [Compound 122, rac-4-(1-((cis)-2-((2-(2,6-dioxopiperidin-3-yl)-1-oxoisoindolin-5-yl)oxy)cyclohexyl)azetidin-3-yl)-2-fluorobenzonitrile] | <15 | 7.70 |
| N#Cc1cc(Cl)ccc1C1CN([C@@H]2CCCC[C@@H]2Oc2ccc3c(c2)CN(C2CCC(=O)NC2=O)C3=O)C1 (single isomer, unassigned) [Compound 37] | <15 | 7.60 |
| N#Cc1cc(Cl)ccc1C1CN([C@H]2CCCC[C@@H]2Oc2ccc3c(c2)CN(C2CCC(=O)NC2=O)C3=O)C1 (single isomer, unassigned) [Compound 38] | 84.9 | 7.28 |
| N#Cc1cc(Cl)ccc1C1CN([C@H]2CCCC[C@@H]2Oc2ccc3c(c2)CN(C2CCC(=O)NC2=O)C3=O)C1 (single isomer, unassigned) [Compound 39] | 84.6 | 8.10 |
| O=C1CCC(N2Cc3c(ccc(O[C@H]4CCCC[C@@H]4N4CC(c5ccccc5)C4)c3Cl)C2=O)C(=O)N1 (single isomer, unassigned) [Compound 41] | <15 | 7.21 |
| O=C1CCC(N2Cc3c(ccc(O[C@H]4CCCC[C@@H]4N4CC(c5ccccc5)C4)c3Cl)C2=O)C(=O)N1 (single isomer, unassigned) [Compound 42] | <15 | 7.37 |
| N#Cc1cc(F)ccc1C1CN([C@@H]2CCCC[C@H]2Oc2ccc3c(c2)CN(C2CCC(=O)NC2=O)C3=O)C1 (single isomer, unassigned) [Compound 43] | <15 | 7.38 |
| N#Cc1cc(F)ccc1C1CN([C@H]2CCCC[C@@H]2Oc2ccc3c(c2)CN(C2CCC(=O)NC2=O)C3=O)C1 (single isomer, unassigned) [Compound 44] | 85.6 | 7.19 |
| N#Cc1cc(F)ccc1C1CN([C@H]2CCCC[C@@H]2Oc2ccc3c(c2)CN(C2CCC(=O)NC2=O)C3=O)C1 (single isomer, unassigned) [Compound 45] | 88 | 7.66 |
| N#Cc1ccc(C2CN([C@H]3CCCC[C@@H]3Oc3ccc4c(c3)CN(C3CCC(=O)NC3=O)C4=O)C2)c(Cl)c1 (single isomer, unassigned) [Compound 47] | 86.7 | 8.30 |
| N#Cc1ccc(C2CN([C@H]3CCCC[C@@H]3Oc3ccc4c(c3)CN(C3CCC(=O)NC3=O)C4=O)C2)c(Cl)c1 (single isomer, unassigned) [Compound 48] | 78.9 | 7.35 |
| O=C1CCC(N2Cc3cc(O[C@H]4CCCC[C@@H]4N4CC(c5ccc(F)cc5)C4)ccc3C2=O)C(=O)N1 (single isomer, unassigned) [Compound 51] | 74.2 | 7.74 |
| O=C1CCC(N2Cc3cc(O[C@H]4CCCC[C@@H]4N4CC(c5ccccc5)C4)c(F)cc3C2=O)C(=O)N1 (single isomer, unassigned) [Compound 53] | 86.9 | 7.54 |
| N#Cc1cc(Cl)ccc1C1CN([C@H]2CCCC[C@H]2Oc2ccc3c(c2)CN(C2CCC(=O)NC2=O)C3=O)C1 (stereo partly drawn) [Compound 40, 5-chloro-2-(1-((1S,2R)-2-((2-(2,6-dioxopiperidin-3-yl)-1-oxoisoindolin-5-yl)oxy)cyclohexyl)azetidin-3-yl)benzonitrile] | <15 | 7.96 |
| N#Cc1cc(F)ccc1C1CN([C@H]2CCCC[C@H]2Oc2ccc3c(c2)CN(C2CCC(=O)NC2=O)C3=O)C1 (stereo partly drawn) [Compound 46, 2-(1-((1S,2R)-2-((2-(2,6-dioxopiperidin-3-yl)-1-oxoisoindolin-5-yl)oxy)cyclohexyl)azetidin-3-yl)-5-fluorobenzonitrile] | <15 | 7.66 |
| N#Cc1ccc(C2CN([C@H]3CCCC[C@H]3Oc3ccc4c(c3)CN(C3CCC(=O)NC3=O)C4=O)C2)c(Cl)c1 (stereo partly drawn) [Compound 49, 3-chloro-4-(1-((1S,2R)-2-((2-(2,6-dioxopiperidin-3-yl)-1-oxoisoindolin-5-yl)oxy)cyclohexyl)azetidin-3-yl)benzonitrile] | <15 | 7.96 |
| O=C1CCC(N2Cc3cc(O[C@@H]4CCCC[C@H]4N4CCC4c4ccccc4)ccc3C2=O)C(=O)N1 (stereo partly drawn) [Compound 54, 3-(1-oxo-5-(((1R,2R)-2-(2-phenylazetidin-1-yl)cyclohexyl)oxy)isoindolin-2-yl)piperidine-2,6-dione] | <15 | 7.05 |
| O=C1CCC(N2Cc3cc(O[C@H]4CCCC[C@@H]4N4CCC4c4ccccc4)ccc3C2=O)C(=O)N1 (stereo partly drawn) [Compound 55, 3-(1-oxo-5-(((1S,2S)-2-(2-phenylazetidin-1-yl)cyclohexyl)oxy)isoindolin-2-yl)piperidine-2,6-dione] | 38.1 | 6.80 |
| O=C1CCC(N2Cc3cc(O[C@H]4CCCC[C@H]4N4CCC4c4ccccc4)ccc3C2=O)C(=O)N1 (stereo partly drawn) [Compound 56, 3-(1-oxo-5-(((1S,2R)-2-(2-phenylazetidin-1-yl)cyclohexyl)oxy)isoindolin-2-yl)piperidine-2,6-dione] | <15 | 6.62 |
